Measured values taken from article PMC5668658 (Biochemistry and Biophysics Reports, 2015).

Columns and labels:
Type in all cases: cell-based
[1] = target: T1, organic cation transporter 1 (OCT1/SLC22A1) (Homo sapiens, UniProt O15245); assay: inhibition of OCT1-specific [3H]atenolol uptake in MDCKII cells stably expressing OCT1
T1 sequence (O15245 1-554): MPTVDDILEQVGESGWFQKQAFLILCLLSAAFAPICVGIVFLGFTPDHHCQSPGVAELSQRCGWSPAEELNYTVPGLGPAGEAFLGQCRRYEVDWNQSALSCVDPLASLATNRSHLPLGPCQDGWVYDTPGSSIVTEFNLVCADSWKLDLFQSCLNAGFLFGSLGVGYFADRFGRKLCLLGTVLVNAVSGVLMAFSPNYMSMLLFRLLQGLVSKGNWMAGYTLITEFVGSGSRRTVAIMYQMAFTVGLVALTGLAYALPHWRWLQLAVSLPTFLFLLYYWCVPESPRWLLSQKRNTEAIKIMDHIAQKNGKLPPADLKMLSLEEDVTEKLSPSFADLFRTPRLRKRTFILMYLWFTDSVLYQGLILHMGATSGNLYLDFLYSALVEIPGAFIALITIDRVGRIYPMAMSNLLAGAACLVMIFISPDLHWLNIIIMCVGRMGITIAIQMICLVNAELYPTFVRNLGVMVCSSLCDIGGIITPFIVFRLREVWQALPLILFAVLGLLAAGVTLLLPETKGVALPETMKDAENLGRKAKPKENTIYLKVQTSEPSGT

[2] = target: T1, organic cation transporter 1 (OCT1/SLC22A1); assay: inhibition of OCT1-specific [3H]atenolol uptake at […] in MDCKII cells
[3] = target: T1, organic cation transporter 1 (OCT1/SLC22A1); assay: inhibition of OCT1-specific [3H]atenolol uptake in MDCKII cells stably expressing OCT1; MPP+ uptake also inhibited

Row | SMILES | inhibition of OCT1-specific [3H]atenolol uptake at 100 μM in MDCKII cells [2] | other results
1 | O=C(CCc1ccc(O)cc1)c1c(O)cc(O)cc1O [phloretin] |  | Ki [1]: 38 µM
2 | O=c1cc(-c2ccccc2)oc2cc(O)c(O)c(O)c12 [Baicalein] | exhibited the most potent inhibitory activity | 
3 | O=C(CCc1ccc(O)cc1)c1c(O)cc(O)cc1O[C@@H]1O[C@H](CO)[C@@H](O)[C@H](O)[C@H]1O [Phlorizin] | also exhibited inhibitory activities comparable to those of their aglycones | 
4 | O=c1c(O)c(-c2ccc(O)c(O)c2)oc2cc(O)cc(O)c12 [quercetin] |  | Ki [3]: 48 µM
